Reference: US20240092761A1, “QUINAZOLINE COMPOUNDS AND METHODS OF USE” (IAMBIC THERAPEUTICS, INC., priority 2022, published 2024)

Key:
[1] = target: CDK1/Cyclin B1 (Homo sapiens (Human), UniProt P06493); test: CDK1/Cyclin B1 ADP-Glo Kinase Assay; type: biochemical; conditions: 80 uM ATP
Procedure, shortened: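 Luminescent ADP-Glo detection of ADP produced over 90 min at room temperature. Enzyme complex 4.917 nM, pre-exposed 30 min to inhibitor; ATP 80 µM (near Km 78.6 µM), substrate 0.75 µM, HEPES pH 7.5, 2% DMSO. Fractional velocity fitted to 4-parameter IC50 equation.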

[2] = target: CDK2/Cyclin E1 full length (Homo sapiens (Human), UniProt P24941); test: CDK2/Cyclin E1 Full Length ADP-Glo Kinase Assay; type: biochemical; conditions: 20 uM ATP, read-out: CDK2/ CyclinE1 IC50
Procedure, shortened: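 ADP-Glo luminescence read-out of ADP formed by 0.328 nM wild-type full-length CDK2/Cyclin E1, 90 min at room temperature with 0.75 uM substrate and 20 uM ATP (Km 64.78 uM), after 30 min enzyme–inhibitor pre-incubation; 50 mM HEPES pH 7.5, 2% DMSO. Four-parameter IC50 fit.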

[3] = target: CDK4/Cyclin D1 (Homo sapiens (Human), UniProt P11802); test: CDK4/Cyclin D1 CHEF Assay (AQT0258 peptide); type: biochemical; conditions: 200 uM ATP, read-out: CDK4/ CyclinD1 AQT IC50
Procedure, shortened: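 CDK4/Cyclin D1 (2.5 nM) phosphorylating 10 uM Sox-labelled peptide AQT0258 with 200 uM ATP (Km 195.2 uM), 10 mM MgCl2, 2% DMSO, 54 mM HEPES pH 7.5. Enzyme and inhibitor pre-incubated 30 min, reaction 3 hrs at 22° C.; CHEF fluorescence (ex 360/em 485 nm), IC50 from fractional velocity, 4-parameter fit.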

[4] = target: CDK6/Cyclin D3 (Homo sapiens (Human), UniProt Q00534); test: CDK6/Cyclin D3 ADP-Glo Kinase Assay; type: biochemical; conditions: 100 uM ATP, read-out: CDK6/ CyclinD3 IC50
Procedure, shortened: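 Luminescent ADP-Glo read-out of ADP produced, used to fit IC50 (4-parameter equation on fractional velocity against inhibitor concentration). Kinase reaction: enzyme and inhibitor together 30 min, then ATP-containing substrate added for 90 min, all at room temperature.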

[5] = system: MCF-7 cells; test: Cell Growth Inhibition, MCF-7 (CellTiterGlo, 6 days); type: cell-based; conditions: Homo sapiens, MCF7, 144 h; MCF-7, 6-day treatment, CellTiterGlo 2.0
Procedure, shortened: (§1)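 Compounds were run in half-log series, usually 10–10,000 nM, with 500 cells/well of OVCAR-3 or MCF-7 in RPMI plus 10% FBS. After a 6-day culture at 37 °C, viability was read by CellTiterGlo luminescence. Inhibition relative to control was fitted (four-parameter, variable slope) for IC50.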

[6] = system: OVCAR-3 cells; test: Cell Growth Inhibition, OVCAR-3 (CellTiterGlo, 6 days); type: cell-based; conditions: Homo sapiens, 144 h; OVCAR-3, 6-day treatment, CellTiterGlo 2.0
Procedure, shortened: as §1

Chain of CDK1/Cyclin B1 (P06493 whole entry): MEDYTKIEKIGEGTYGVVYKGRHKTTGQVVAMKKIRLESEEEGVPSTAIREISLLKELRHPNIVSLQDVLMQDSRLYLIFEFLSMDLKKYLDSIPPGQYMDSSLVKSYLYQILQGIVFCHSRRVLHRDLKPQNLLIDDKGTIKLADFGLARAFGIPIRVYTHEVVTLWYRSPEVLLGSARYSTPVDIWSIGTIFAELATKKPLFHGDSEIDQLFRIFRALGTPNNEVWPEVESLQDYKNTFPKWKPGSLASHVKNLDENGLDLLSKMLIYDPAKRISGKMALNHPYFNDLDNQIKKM
Chain of CDK1/Cyclin B1 (P14635 whole entry partner): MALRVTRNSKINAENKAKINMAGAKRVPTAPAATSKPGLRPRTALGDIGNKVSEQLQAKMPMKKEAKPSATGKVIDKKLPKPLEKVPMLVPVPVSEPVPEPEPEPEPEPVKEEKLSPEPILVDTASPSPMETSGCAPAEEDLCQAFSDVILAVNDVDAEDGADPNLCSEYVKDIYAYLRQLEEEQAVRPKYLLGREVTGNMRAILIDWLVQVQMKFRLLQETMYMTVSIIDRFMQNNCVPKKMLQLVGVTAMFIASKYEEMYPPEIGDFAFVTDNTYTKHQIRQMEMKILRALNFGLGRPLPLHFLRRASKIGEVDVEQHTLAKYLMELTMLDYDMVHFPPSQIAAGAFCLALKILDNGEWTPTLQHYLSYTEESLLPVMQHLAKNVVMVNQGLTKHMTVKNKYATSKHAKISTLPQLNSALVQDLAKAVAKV
Chain of CDK4/Cyclin D1 (P11802 whole entry): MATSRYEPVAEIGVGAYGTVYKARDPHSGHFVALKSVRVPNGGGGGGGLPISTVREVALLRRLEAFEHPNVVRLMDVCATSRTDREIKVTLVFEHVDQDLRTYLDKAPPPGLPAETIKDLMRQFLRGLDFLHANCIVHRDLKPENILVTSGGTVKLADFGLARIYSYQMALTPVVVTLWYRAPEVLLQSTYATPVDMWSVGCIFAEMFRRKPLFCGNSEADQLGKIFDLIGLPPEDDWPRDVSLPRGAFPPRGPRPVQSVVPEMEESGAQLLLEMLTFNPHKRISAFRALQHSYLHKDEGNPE
Chain of CDK4/Cyclin D1 (P24385 whole entry partner): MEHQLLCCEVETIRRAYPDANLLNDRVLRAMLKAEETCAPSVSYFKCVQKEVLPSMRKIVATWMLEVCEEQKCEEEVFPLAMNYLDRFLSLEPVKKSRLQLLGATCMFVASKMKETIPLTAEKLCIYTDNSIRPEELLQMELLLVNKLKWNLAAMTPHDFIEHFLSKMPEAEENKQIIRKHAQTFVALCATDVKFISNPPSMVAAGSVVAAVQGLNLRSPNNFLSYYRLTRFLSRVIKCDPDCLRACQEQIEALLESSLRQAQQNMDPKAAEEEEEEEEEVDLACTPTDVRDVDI
Chain of CDK6/Cyclin D3 (Q00534 whole entry): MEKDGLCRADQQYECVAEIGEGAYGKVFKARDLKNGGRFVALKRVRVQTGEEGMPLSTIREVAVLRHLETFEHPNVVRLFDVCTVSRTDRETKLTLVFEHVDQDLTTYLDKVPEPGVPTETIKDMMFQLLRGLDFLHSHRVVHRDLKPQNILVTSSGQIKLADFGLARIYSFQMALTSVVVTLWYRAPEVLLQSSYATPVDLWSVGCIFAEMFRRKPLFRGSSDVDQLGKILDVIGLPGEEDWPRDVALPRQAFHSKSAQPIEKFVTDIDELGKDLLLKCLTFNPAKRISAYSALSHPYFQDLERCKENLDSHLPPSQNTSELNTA
Chain of CDK6/Cyclin D3 (P30281 whole entry partner): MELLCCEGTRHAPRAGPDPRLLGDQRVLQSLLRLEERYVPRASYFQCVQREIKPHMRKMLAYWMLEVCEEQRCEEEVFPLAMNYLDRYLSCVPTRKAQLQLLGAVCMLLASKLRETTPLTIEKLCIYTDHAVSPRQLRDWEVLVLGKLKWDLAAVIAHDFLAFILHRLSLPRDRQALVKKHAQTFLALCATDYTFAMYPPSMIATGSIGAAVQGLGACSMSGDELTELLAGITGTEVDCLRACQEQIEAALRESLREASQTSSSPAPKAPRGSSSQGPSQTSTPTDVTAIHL

IC50 [1] [µM] | IC50 [2] [µM] | IC50 [3] [µM] | IC50 [4] [µM] | IC50 [5] [µM] | IC50 [6] [µM] | Structure (SMILES)
< 0.2 | < 0.2 | < 0.2 | < 0.2 | 0.5 to 2 | 0.5 to 2 | CC1(CS(=O)(=O)N2CCC(Nc3ncc4cc(C(F)F)cc(N5CC6(CCNC6)C5)c4n3)CC2)CC1 [Example 95, 6-(difluoromethyl)-N-(1-(((1-methylcyclopropyl)methyl)sulfonyl)piperidin-4-yl)-8-(2,6-diazaspiro[3.4]octan-2-yl)quinazolin-2-amine]
< 0.2 | < 0.2 | < 0.2 | < 0.2 | 0.5 to 2 | 0.5 to 2 | CC1(CCS(=O)(=O)N2CCC(Nc3ncc4cc(C(F)F)cc(N5CC6(CCNC6)C5)c4n3)CC2)CC1 [Example 96, 6-(difluoromethyl)-N-(1-((2-(1-methylcyclopropyl)ethyl)sulfonyl)piperidin-4-yl)-8-(2,6-diazaspiro[3.4]octan-2-yl)quinazolin-2-amine]
< 0.2 | < 0.2 | < 0.2 | < 0.2 | 0.2 to 0.5 | < 0.2 | O=S(=O)(c1ccc(C(F)(F)F)nc1)N1CCC(Nc2ncc3cc(C(F)F)cc(N4CC5(CCNC5)C4)c3n2)CC1 [Example 97, 6-(difluoromethyl)-8-(2,6-diazaspiro[3.4]octan-2-yl)-N-(1-((6-(trifluoromethyl)pyridin-3-yl)sulfonyl)piperidin-4-yl)quinazolin-2-amine]
< 0.2 | < 0.2 | < 0.2 | < 0.2 | 0.2 to 0.5 | 0.5 to 2 | O=S(=O)(C1CC1)N1CCC(Nc2ncc3cc(C(F)F)cc(N4CC5(CNCCO5)C4)c3n2)CC1 [Example 98, N-(1-(cyclopropylsulfonyl)piperidin-4-yl)-6-(difluoromethyl)-8-(5-oxa-2,8-diazaspiro[3.5]nonan-2-yl)quinazolin-2-amine]
< 0.2 | < 0.2 | < 0.2 | < 0.2 | 0.5 to 2 | 0.2 to 0.5 | CS(=O)(=O)N1CCC(Nc2ncc3cccc(C4CC5(CCNC5)C4)c3n2)CC1 (stereo not drawn) [Example 99, N-(1-(methylsulfonyl)piperidin-4-yl)-8-(6-azaspiro[3.4]octan-2-yl)quinazolin-2-amine]
< 0.2 | < 0.2 | < 0.2 | < 0.2 | 0.2 to 0.5 | 0.5 to 2 | CS(=O)(=O)N1CCC(Nc2ncc3cc(C(F)F)cc(C4CC5(CCN(CCC(F)(F)F)C5)C4)c3n2)CC1 (stereo not drawn) [Example 101, 6-(difluoromethyl)-N-(1-(methylsulfonyl)piperidin-4-yl)-8-(6-(3,3,3-trifluoropropyl)-6-azaspiro[3.4]octan-2-yl)quinazolin-2-amine]
< 0.2 | < 0.2 | < 0.2 | < 0.2 | 0.2 to 0.5 | 0.2 to 0.5 | CS(=O)(=O)N1CCC(Nc2ncc3cc(C(F)F)cc(C4CC5(CCN(C6COC6)C5)C4)c3n2)CC1 (stereo not drawn) [Example 102, 6-(difluoromethyl)-N-(1-(methylsulfonyl)piperidin-4-yl)-8-(6-(oxetan-3-yl)-6-azaspiro[3.4]octan-2-yl)quinazolin-2-amine]
< 0.2 | < 0.2 | < 0.2 | < 0.2 | 0.2 to 0.5 | 0.5 to 2 | CC(C)(F)CN1CCC2(CC(c3cc(C(F)F)cc4cnc(NC5CCN(S(C)(=O)=O)CC5)nc34)C2)C1 (stereo not drawn) [Example 103, 6-(difluoromethyl)-8-(6-(2-fluoro-2-methylpropyl)-6-azaspiro[3.4]octan-2-yl)-N-(1-(methylsulfonyl)piperidin-4-yl)quinazolin-2-amine]
< 0.2 | < 0.2 | < 0.2 | < 0.2 | 0.2 to 0.5 | 0.2 to 0.5 | O=S(=O)(C1CC1)N1CCC(Nc2ncc3cc(C(F)F)cc(N4CC5(CNCC5F)C4)c3n2)CC1 (stereo not drawn) [Example 104, N-(1-(cyclopropylsulfonyl)piperidin-4-yl)-6-(difluoromethyl)-8-(8-fluoro-2,6-diazaspiro[3.4]octan-2-yl)quinazolin-2-amine]
0.2 to 0.5 | < 0.2 | < 0.2 | 0.2 to 0.5 | > 2 | > 2 | O=S(=O)(N1CCC(Nc2ncc3cccc(N4CC5(CNCCC5(F)F)C4)c3n2)CC1)C1(C(F)F)CC1 [Example 105, 8-(9,9-difluoro-2,6-diazaspiro[3.5]nonan-2-yl)-N-(1-((1-(difluoromethyl)cyclopropyl)sulfonyl)piperidin-4-yl)quinazolin-2-amine]
< 0.2 | < 0.2 | < 0.2 | < 0.2 | 0.5 to 2 | 0.5 to 2 | CS(=O)(=O)N1CCC(Nc2ncc3cc(C(F)F)cc(C4CC5(CCN(CC(F)(F)CO)C5)C4)c3n2)CC1 (stereo not drawn) [Example 106, 3-(2-(6-(difluoromethyl)-2-((1-(methylsulfonyl)piperidin-4-yl)amino)quinazolin-8-yl)-6-azaspiro[3.4]octan-6-yl)-2,2-difluoropropan-1-ol]
< 0.2 | < 0.2 | < 0.2 | < 0.2 | 0.5 to 2 | 0.5 to 2 | CS(=O)(=O)N1CCC(Nc2ncc3cccc(N4CC(F)(F)C5(CNC5)C4)c3n2)CC1 [Example 109, 8-(8,8-difluoro-2,6-diazaspiro[3.4]octan-6-yl)-N-(1-(methylsulfonyl)piperidin-4-yl)quinazolin-2-amine]
< 0.2 | < 0.2 | < 0.2 | < 0.2 | 0.5 to 2 | 0.5 to 2 | CS(=O)(=O)N1CCC(Nc2ncc3cccc(C4CC5(CNCCO5)C4)c3n2)CC1 (stereo not drawn) [Example 110, N-(1-(methylsulfonyl)piperidin-4-yl)-8-(5-oxa-8-azaspiro[3.5]nonan-2-yl)quinazolin-2-amine]
0.5 to 2 | < 0.2 | < 0.2 | < 0.2 | 0.5 to 2 | 0.5 to 2 | CS(=O)(=O)N1CCC(Nc2ncc3cccc(N4CC5(CNCC5(F)F)C4)c3n2)CC1 [Example 111, 8-(8,8-difluoro-2,6-diazaspiro[3.4]octan-2-yl)-N-(1-(methylsulfonyl)piperidin-4-yl)quinazolin-2-amine]
< 0.2 | < 0.2 | < 0.2 | < 0.2 | 0.2 to 0.5 | < 0.2 | CS(=O)(=O)N1CCC(Nc2ncc3cc(C(F)F)cc(C4CC5(C4)CN(CC(F)(F)CO)C5)c3n2)CC1 [Example 112, 3-(6-(6-(difluoromethyl)-2-((1-(methylsulfonyl)piperidin-4-yl)amino)quinazolin-8-yl)-2-azaspiro[3.3]heptan-2-yl)-2,2-difluoropropan-1-ol]
< 0.2 | < 0.2 | < 0.2 | < 0.2 | 0.2 to 0.5 | 0.2 to 0.5 | CS(=O)(=O)N1CCC(Nc2ncc3cc(C(F)F)cc(C4CC(O)(C(F)F)C4)c3n2)CC1 (stereo not drawn) [Example 113, 1-(difluoromethyl)-3-(6-(difluoromethyl)-2-((1-(methylsulfonyl)piperidin-4-yl)amino)quinazolin-8-yl)cyclobutan-1-ol]
< 0.2 | < 0.2 | < 0.2 | < 0.2 | > 2 | > 2 | CS(=O)(=O)N1CCC(Nc2ncc3cc(C(F)(F)F)cc(C4CC(O)(C5CC5)C4)c3n2)CC1 (stereo not drawn) [Example 114, 1-cyclopropyl-3-(2-((1-(methylsulfonyl)piperidin-4-yl)amino)-6-(trifluoromethyl)quinazolin-8-yl)cyclobutan-1-ol]

Structure (SMILES) | IC50 [1] [µM] | IC50 [2] [µM] | IC50 [3] [µM] | IC50 [4] [µM] | IC50 [5] [µM] | IC50 [6] [µM]
CS(=O)(=O)N1CCC(Nc2ncc3cc(C(F)F)cc(C4CC5(CCN(CC(F)F)C5)C4)c3n2)CC1 (stereo not drawn) [Example 100, 8-(6-(2,2-difluoroethyl)-6-azaspiro[3.4]octan-2-yl)-6-(difluoromethyl)-N-(1-(methylsulfonyl)piperidin-4-yl)quinazolin-2-amine] | < 0.2 | < 0.2 | < 0.2 | < 0.2 | 0.2 to 0.5 | 0.5 to 2
